Measurements reported in ChEMBL document CHEMBL3259599, “Novel colchicine-site binders with a cyclohexanedione scaffold identified through a ligand-based virtual screening approach” (J Med Chem, 2014).
Active and inactive are the calls of the source. The calls are words filed in the database; no cut-off is given here.

Assays:
[1] = tested on: L1210; experiment: Antiproliferative activity against mouse L1210 cells after 48 to 96 hrs by coulter counter analysis; assay type: functional, cell-based
[2] = Antiproliferative activity against MBEC after 3 days by coulter counter analysis; assay type: functional, Mus musculus
[3] = tested on: HeLa; experiment: Antiproliferative activity against human HeLa cells after 4 days by coulter counter analysis; assay type: functional, cell-based; settings: 96 h
[4] = Cell cycle arrest in HMEC1 cells assessed as accumulation at G2/M phase at 1 uM after 24 hrs by propidium iodide staining-based flow cytometric analysis; assay type: functional; settings: Homo sapiens, HMEC-1
[5] = tested on: CCRF-CEM; experiment: Antiproliferative activity against human CEM cells after 48 to 96 hrs by coulter counter analysis; assay type: functional, cell-based
[6] = Cell cycle arrest in HMEC1 cells assessed as accumulation at subG1 phase at 1 uM after 24 hrs by propidium iodide staining-based flow cytometric analysis; assay type: functional; settings: Homo sapiens, HMEC-1
[7] = Antiproliferative activity against HMEC1 after 4 days by coulter counter analysis; assay type: functional; settings: Homo sapiens, HMEC-1, 96 h
[8] = Antiproliferative activity against BAEC after 3 days by coulter counter analysis; assay type: functional; settings: Bos taurus, 72 h
[9] = biological target: T1, Tubulin (Bos taurus) (UniProt Q6B856+Q862L2+Q862F3); experiment: Displacement of MTC from calf brain tubulin colchicine binding site at 20 uM by fluorescence spectroscopic analysis
[10] = biological target: T1, Tubulin (Bos taurus); experiment: Displacement of R-PT from calf brain tubulin at 25 degC by fluorescence spectroscopic analysis
[11] = tested on: MDA-MB-231; experiment: Antimigratory activity against human MDA-MB-231 cells at 2 to 10 uM after 17 hrs by Transwell assay; assay type: functional, cell-based
[12] = tested on: Liver; experiment: Metabolic stability in 50% mouse liver extract assessed as compound remaining at 100 uM measured after 3 hrs by HPLC analysis; assay type: ADME, tissue-based; settings: 3 h, 100 µM
[13] = tested on: Serum; experiment: Metabolic stability in 10% human serum assessed as compound remaining at 100 uM measured after 3 hrs by HPLC analysis; assay type: ADME; settings: serum, 3 h, 100 µM
[14] = tested on: MDA-MB-231; experiment: Antiinvasive activity against human MDA-MB-231 cells at 2 to 10 uM after 17 hrs by Transwell assay; assay type: functional, cell-based
[15] = species: Rattus norvegicus; experiment: Binding affinity to rat brain tubulin at 37 degC after 1 to 2 mins by DEAE cellulose filter paper method
[16] = tested on: MDA-MB-231; experiment: Competitive binding affinity to beta-tubulin in human MDA-MB-231 cells assessed as inhibition of protein-N/N'-ethylene-bis(iodoacetamide) adduct formation at 0.5 uM preincubated for 16 hrs followed by N/N'-ethylene-bis(iodoacetamide) formation measured after 1.5 hrs by Western blot analysis; assay type: cell-based
[17] = tested on: MDA-MB-231; experiment: Antiproliferative activity against human MDA-MB-231 cells at 0.08 uM after 17 hrs; assay type: functional, cell-based
[18] = tested on: MDA-MB-231; experiment: Antimigratory activity against human MDA-MB-231 cells at 0.08 uM after 17 hrs by Transwell assay; assay type: functional, cell-based
[19] = Cell cycle arrest in HMEC1 cells assessed as accumulation at subG1 phase at 0.03 uM after 24 hrs by propidium iodide staining-based flow cytometric analysis; assay type: functional; settings: Homo sapiens, HMEC-1
[20] = Cell cycle arrest in HMEC1 cells assessed as accumulation at G2/M phase at 0.03 uM after 24 hrs by propidium iodide staining-based flow cytometric analysis; assay type: functional; settings: Homo sapiens, HMEC-1
[21] = tested on: HMEC-1; experiment: Antivascular activity in HMEC1 cells assessed as destruction of cord like structure at 0.3 to 1 uM after 90 mins by matrigel assay; assay type: functional, cell-based; settings: Homo sapiens
[22] = tested on: MDA-MB-231; experiment: Antiinvasive activity against human MDA-MB-231 cells at 0.08 uM after 17 hrs by Transwell assay; assay type: functional, cell-based

Row | SMILES | IC50 [1] | IC50 [2] | IC50 [3] | IC50 [5] | IC50 [7] | IC50 [8] | inhibition [9] | also measured
1 | CC(Nc1ccccc1C)=C1C(=O)CC(c2ccccc2)CC1=O (stereo not given) | 300 nM | 320 nM | 480 nM | 680 nM | 260 nM | 170 nM | – | Activity [4]: Active; Activity [6]: Active
2 | CCC(Nc1ccccc1OC)=C1C(=O)CC(c2ccccc2)CC1=O (stereo not given) | 1500 nM | 1400 nM | 4300 nM | 2300 nM | 1400 nM | 1200 nM | Active | Ka [10]: 7.1 ×10⁶ /M
3 | CCC(Nc1ccccc1O)=C1C(=O)CC(c2ccccc2)CC1=O (stereo not given) | 13000 nM | 13000 nM | 11000 nM | 15000 nM | 22000 nM | 35000 nM | Active | inhibition [11]: inactive; Stability [12]: Unstable; Stability [13]: Unstable; inhibition [14]: inactive
4 | COc1cc([C@@H]2c3cc4c(cc3[C@H](O)[C@H]3COC(=O)[C@H]23)OCO4)cc(OC)c1OC | – | – | – | – | – | – | – | Ka [15]: 1.8 ×10⁶ /M
5 | COc1cc2c(c(OC)c1OC)-c1ccc(OC)c(=O)cc1[C@@H](NC(C)=O)CC2 [COLCHICINE] | 10 nM | 31 nM | – | – | – | 6.9 nM | – | inhibition [16]: Active; Activity [17]: Active; inhibition [18]: Active; Activity [19]: Active; Activity [20]: Active; Activity [21]: Active; inhibition [22]: Active
6 | CC(Nc1ccccc1C)=C1C(=O)CC(c2cccc(O)c2)CC1=O (stereo not given) | 3500 nM | 2500 nM | 4100 nM | 6200 nM | 2200 nM | 2100 nM | – | –
7 | COc1ccccc1NC(C)=C1C(=O)CC(c2cccc(C)c2)CC1=O (stereo not given) | 170 nM | 420 nM | 790 nM | 310 nM | 330 nM | 260 nM | – | –
8 | COc1cccc(C2CC(=O)C(=C(C)Nc3ccccc3OC)C(=O)C2)c1 (stereo not given) | 210 nM | 410 nM | 690 nM | 240 nM | 300 nM | 230 nM | Active | Ka [10]: 7.5 ×10⁶ /M
9 | COc1ccccc1NC(C)=C1C(=O)CC(c2ccc(F)cc2)CC1=O (stereo not given) | 3300 nM | 2100 nM | 4000 nM | 5300 nM | 1800 nM | 1700 nM | – | –
10 | CCC(Nc1ccccc1C)=C1C(=O)CC(c2ccccc2)CC1=O (stereo not given) | 6900 nM | 2800 nM | 9200 nM | 6300 nM | 2100 nM | 2200 nM | – | –
